# From patent publication US9738634B2, “Heterocyclic amide compound and herbicide” (SYNGENTA PARTICIPATIONS AG, priority 2013, dated 2017)
# Legend:
# Format in all cases: in vivo
# bulrush [1] = experiment: Test Example 1: weedkilling efficacy, preemergent weed treatment in the submerged state; B: bulrush; conditions: treatment dosage 252 g/ha
# How it was run: (§1)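 Pots of alluvial soil were flooded to a 4 cm depth. Mixed weed seeds were sown and 2.5 leaf-stage rice seedlings transplanted. On sowing day, water-diluted emulsion was applied to the water surface (dose in g/ha). After 3 weeks at 25–30 °C, effects were rated.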
# green foxtail [2] = experiment: Test Example 3: weedkilling efficacy through soil treatment; E: green foxtail; conditions: treatment dosage 315 g/ha
# How it was run: (§2)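 Crop and weed responses were judged three weeks after a uniform surface spray of the water-diluted emulsion at the given g/ha rate. Seeds sat beneath about 1.5 cm of sterilized diluvial soil, and boxes stood in a greenhouse at 25 to 30° C.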
# Italian ryegrass [3] = experiment: Test Example 3: weedkilling efficacy through soil treatment; I: Italian ryegrass; conditions: treatment dosage 315 g/ha
# How it was run: as §2
# corn [4] = experiment: Test Example 3: soil treatment, effect on crop; c: corn; conditions: treatment dosage 315 g/ha
# How it was run: as §2
# catchweed [5] = experiment: Test Example 3: weedkilling efficacy through soil treatment; O: catchweed; conditions: treatment dosage 315 g/ha
# How it was run: as §2
# directly sown rice [6] = experiment: Test Example 3: soil treatment, effect on crop; b: directly sown rice; conditions: treatment dosage 315 g/ha
# How it was run: as §2
# catchweed [7] = experiment: Test Example 4: weedkilling efficacy by foliar treatment; O: catchweed; conditions: treatment dosage 315 g/ha
# How it was run: (§3)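 Seeds are spot-sown into sterilized diluvial soil and covered with about 1.5 cm of soil. After 14 days' greenhouse growth at 25 to 30° C, plants are sprayed on stems and leaves with diluted emulsion at the stated g/ha rate, then scored at 3 weeks.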
# oval-leafed pondweed [8] = experiment: Test Example 1: weedkilling efficacy, preemergent weed treatment in the submerged state; C: oval-leafed pondweed; conditions: treatment dosage 252 g/ha
# How it was run: as §1
# Indian mallow [9] = experiment: Test Example 3: weedkilling efficacy through soil treatment; K: Indian mallow; conditions: treatment dosage 315 g/ha
# How it was run: as §2
# oval-leafed pondweed [10] = experiment: Test Example 2: weedkilling efficacy, growth period weed treatment in the submerged state; C: oval-leafed pondweed; conditions: treatment dosage 252 g/ha
# How it was run: (§4)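 Weeds treated at the 1-2 leaf stage by application of diluted emulsion onto floodwater (4 cm depth, alluvial soil) at specified g/ha. Grown in greenhouse at 25 to 30° C; herbicidal effect rated three weeks after treatment.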
# barnyard grass [11] = experiment: Test Example 2: weedkilling efficacy, growth period weed treatment in the submerged state; A: barnyard grass; conditions: treatment dosage 252 g/ha
# How it was run: as §4
# chickweed [12] = experiment: Test Example 3: weedkilling efficacy through soil treatment; N: chickweed; conditions: treatment dosage 315 g/ha
# How it was run: as §2
# wild oat [13] = experiment: Test Example 3: weedkilling efficacy through soil treatment; G: wild oat; conditions: treatment dosage 315 g/ha
# How it was run: as §2
# soybean [14] = experiment: Test Example 4: foliar treatment, effect on crop; d: soybean; conditions: treatment dosage 315 g/ha
# How it was run: as §3
# directly sown rice [15] = experiment: Test Example 4: foliar treatment, effect on crop; b: directly sown rice; conditions: treatment dosage 315 g/ha
# How it was run: as §3
# redroot pigweed [16] = experiment: Test Example 4: weedkilling efficacy by foliar treatment; L: redroot pigweed; conditions: treatment dosage 315 g/ha
# How it was run: as §3
# beet [17] = experiment: Test Example 3: soil treatment, effect on crop; f: beet; conditions: treatment dosage 315 g/ha
# How it was run: as §2
# wheat [18] = experiment: Test Example 4: foliar treatment, effect on crop; e: wheat; conditions: treatment dosage 315 g/ha
# How it was run: as §3
# fig-leafed goosefoot [19] = experiment: Test Example 3: weedkilling efficacy through soil treatment; M: fig-leafed goosefoot; conditions: treatment dosage 315 g/ha
# How it was run: as §2
# black-grass [20] = experiment: Test Example 4: weedkilling efficacy by foliar treatment; H: black-grass; conditions: treatment dosage 315 g/ha
# How it was run: as §3
# transplanted rice = experiment: Test Example 1: preemergent weed treatment in the submerged state, effect on crop; a: transplanted rice; conditions: treatment dosage 252 g/ha
# How it was run: as §1
# crabgrass [21] = experiment: Test Example 4: weedkilling efficacy by foliar treatment; D: crabgrass; conditions: treatment dosage 315 g/ha
# How it was run: as §3
# Indian mallow [22] = experiment: Test Example 4: weedkilling efficacy by foliar treatment; K: Indian mallow; conditions: treatment dosage 315 g/ha
# How it was run: as §3
# wild oat [23] = experiment: Test Example 4: weedkilling efficacy by foliar treatment; G: wild oat; conditions: treatment dosage 315 g/ha
# How it was run: as §3
# redroot pigweed [24] = experiment: Test Example 3: weedkilling efficacy through soil treatment; L: redroot pigweed; conditions: treatment dosage 315 g/ha
# How it was run: as §2
# barnyard grass [25] = experiment: Test Example 1: weedkilling efficacy, preemergent weed treatment in the submerged state; A: barnyard grass; conditions: treatment dosage 252 g/ha
# How it was run: as §1
# wheat [26] = experiment: Test Example 3: soil treatment, effect on crop; e: wheat; conditions: treatment dosage 315 g/ha
# How it was run: as §2
# Italian ryegrass [27] = experiment: Test Example 4: weedkilling efficacy by foliar treatment; I: Italian ryegrass; conditions: treatment dosage 315 g/ha
# How it was run: as §3
# soybean [28] = experiment: Test Example 3: soil treatment, effect on crop; d: soybean; conditions: treatment dosage 315 g/ha
# How it was run: as §2
# crabgrass [29] = experiment: Test Example 3: weedkilling efficacy through soil treatment; D: crabgrass; conditions: treatment dosage 315 g/ha
# How it was run: as §2
# green foxtail [30] = experiment: Test Example 4: weedkilling efficacy by foliar treatment; E: green foxtail; conditions: treatment dosage 315 g/ha
# How it was run: as §3
# chickweed [31] = experiment: Test Example 4: weedkilling efficacy by foliar treatment; N: chickweed; conditions: treatment dosage 315 g/ha
# How it was run: as §3
# beet [32] = experiment: Test Example 4: foliar treatment, effect on crop; f: beet; conditions: treatment dosage 315 g/ha
# How it was run: as §3
# bulrush [33] = experiment: Test Example 2: weedkilling efficacy, growth period weed treatment in the submerged state; B: bulrush; conditions: treatment dosage 252 g/ha
# How it was run: as §4
# birds-eye speedwell [34] = experiment: Test Example 3: weedkilling efficacy through soil treatment; p: birds-eye speedwell; conditions: treatment dosage 315 g/ha
# How it was run: as §2
# fig-leafed goosefoot [35] = experiment: Test Example 4: weedkilling efficacy by foliar treatment; M: fig-leafed goosefoot; conditions: treatment dosage 315 g/ha
# How it was run: as §3
# corn [36] = experiment: Test Example 4: foliar treatment, effect on crop; c: corn; conditions: treatment dosage 315 g/ha
# How it was run: as §3
# black-grass [37] = experiment: Test Example 3: weedkilling efficacy through soil treatment; H: black-grass; conditions: treatment dosage 315 g/ha
# How it was run: as §2
# birds-eye speedwell [38] = experiment: Test Example 4: weedkilling efficacy by foliar treatment; p: birds-eye speedwell; conditions: treatment dosage 315 g/ha
# How it was run: as §3
Compound,B (bulrush) weedkilling efficacy grade (bulrush [1]),E (green foxtail) weedkilling efficacy grade (green foxtail [2]),I (Italian ryegrass) weedkilling efficacy grade (Italian ryegrass [3]),c (corn) effect on crop grade (corn [4]),O (catchweed) weedkilling efficacy grade (catchweed [7]),C (oval-leafed pondweed) weedkilling efficacy grade (oval-leafed pondweed [8]),K (Indian mallow) weedkilling efficacy grade (Indian mallow [9]),C (oval-leafed pondweed) weedkilling efficacy grade (oval-leafed pondweed [10]),A (barnyard grass) weedkilling efficacy grade (barnyard grass [11]),N (chickweed) weedkilling efficacy grade (chickweed [12]),G (wild oat) weedkilling efficacy grade (wild oat [13]),d (soybean) effect on crop grade (soybean [14]),b (directly sown rice) effect on crop grade (directly sown rice [15]),L (redroot pigweed) weedkilling efficacy grade (redroot pigweed [16]),f (beet) effect on crop grade (beet [17]),e (wheat) effect on crop grade (wheat [18]),M (fig-leafed goosefoot) weedkilling efficacy grade (fig-leafed goosefoot [19]),H (black-grass) weedkilling efficacy grade (black-grass [20]),a (transplanted rice) effect on crop grade (transplanted rice),D (crabgrass) weedkilling efficacy grade (crabgrass [21]),further results
CC1=C(c2ccccc2)C(=O)N(C(C)(C)C(=O)Nc2cc(Cl)cc(Br)n2)CO1 [B-2-36],"5 (weed kill ratio 90% or more, (practically complete withering))","5 (weed kill ratio 90% or more, (practically complete withering))","4 (weed kill ratio 70% or more, less than 90%)","1 (weed kill ratio 5% or more, less than 20%)","4 (weed kill ratio 70% or more, less than 90%)","5 (weed kill ratio 90% or more, (practically complete withering))","4 (weed kill ratio 70% or more, less than 90%)","5 (weed kill ratio 90% or more, (practically complete withering))","5 (weed kill ratio 90% or more, (practically complete withering))","4 (weed kill ratio 70% or more, less than 90%)","1 (weed kill ratio 5% or more, less than 20%)","3 (weed kill ratio 40% or more, less than 70%)","4 (weed kill ratio 70% or more, less than 90%)","3 (weed kill ratio 40% or more, less than 70%)","3 (weed kill ratio 40% or more, less than 70%)",0 (weed kill ratio 5% or less (practically no effect)),"3 (weed kill ratio 40% or more, less than 70%)","3 (weed kill ratio 40% or more, less than 70%)",0 (weed kill ratio 5% or less (practically no effect)),"5 (weed kill ratio 90% or more, (practically complete withering))","O (catchweed) weedkilling efficacy grade (catchweed [5]): 5 (weed kill ratio 90% or more, (practically complete withering)); b (directly sown rice) effect on crop grade (directly sown rice [6]): 4 (weed kill ratio 70% or more, less than 90%); K (Indian mallow) weedkilling efficacy grade (Indian mallow [22]): 4 (weed kill ratio 70% or more, less than 90%); G (wild oat) weedkilling efficacy grade (wild oat [23]): 1 (weed kill ratio 5% or more, less than 20%); L (redroot pigweed) weedkilling efficacy grade (redroot pigweed [24]): 4 (weed kill ratio 70% or more, less than 90%); A (barnyard grass) weedkilling efficacy grade (barnyard grass [25]): 5 (weed kill ratio 90% or more, (practically complete withering)); e (wheat) effect on crop grade (wheat [26]): 0 (weed kill ratio 5% or less (practically no effect)); I (Italian ryegrass) weedkilling efficacy grade (Italian ryegrass [27]): 0 (weed kill ratio 5% or less (practically no effect)); d (soybean) effect on crop grade (soybean [28]): 1 (weed kill ratio 5% or more, less than 20%); D (crabgrass) weedkilling efficacy grade (crabgrass [29]): 5 (weed kill ratio 90% or more, (practically complete withering)); E (green foxtail) weedkilling efficacy grade (green foxtail [30]): 5 (weed kill ratio 90% or more, (practically complete withering)); N (chickweed) weedkilling efficacy grade (chickweed [31]): 4 (weed kill ratio 70% or more, less than 90%); f (beet) effect on crop grade (beet [32]): 3 (weed kill ratio 40% or more, less than 70%); B (bulrush) weedkilling efficacy grade (bulrush [33]): 5 (weed kill ratio 90% or more, (practically complete withering)); P (birds-eye speedwell) weedkilling efficacy grade (birds-eye speedwell [34]): 4 (weed kill ratio 70% or more, less than 90%); M (fig-leafed goosefoot) weedkilling efficacy grade (fig-leafed goosefoot [35]): 4 (weed kill ratio 70% or more, less than 90%); c (corn) effect on crop grade (corn [36]): 3 (weed kill ratio 40% or more, less than 70%); H (black-grass) weedkilling efficacy grade (black-grass [37]): 5 (weed kill ratio 90% or more, (practically complete withering))"
CC1=C(c2ccccc2)C(=O)N(C(C)(C)C(=O)Nc2cncc(F)c2)CO1 [B-3-01],"5 (weed kill ratio 90% or more, (practically complete withering))","5 (weed kill ratio 90% or more, (practically complete withering))","5 (weed kill ratio 90% or more, (practically complete withering))","3 (weed kill ratio 40% or more, less than 70%)","4 (weed kill ratio 70% or more, less than 90%)","5 (weed kill ratio 90% or more, (practically complete withering))","2 (weed kill ratio 20% or more, less than 40%)","4 (weed kill ratio 70% or more, less than 90%)","3 (weed kill ratio 40% or more, less than 70%)","4 (weed kill ratio 70% or more, less than 90%)","5 (weed kill ratio 90% or more, (practically complete withering))","4 (weed kill ratio 70% or more, less than 90%)","5 (weed kill ratio 90% or more, (practically complete withering))","3 (weed kill ratio 40% or more, less than 70%)","4 (weed kill ratio 70% or more, less than 90%)","1 (weed kill ratio 5% or more, less than 20%)","5 (weed kill ratio 90% or more, (practically complete withering))","5 (weed kill ratio 90% or more, (practically complete withering))",0 (weed kill ratio 5% or less (practically no effect)),"5 (weed kill ratio 90% or more, (practically complete withering))","P (birds-eye speedwell) weedkilling efficacy grade (birds-eye speedwell [38]): 3 (weed kill ratio 40% or more, less than 70%); K (Indian mallow) weedkilling efficacy grade (Indian mallow [22]): 3 (weed kill ratio 40% or more, less than 70%); G (wild oat) weedkilling efficacy grade (wild oat [23]): 5 (weed kill ratio 90% or more, (practically complete withering)); L (redroot pigweed) weedkilling efficacy grade (redroot pigweed [24]): 4 (weed kill ratio 70% or more, less than 90%); A (barnyard grass) weedkilling efficacy grade (barnyard grass [25]): 5 (weed kill ratio 90% or more, (practically complete withering)); e (wheat) effect on crop grade (wheat [26]): 5 (weed kill ratio 90% or more, (practically complete withering)); I (Italian ryegrass) weedkilling efficacy grade (Italian ryegrass [27]): 5 (weed kill ratio 90% or more, (practically complete withering)); d (soybean) effect on crop grade (soybean [28]): 0 (weed kill ratio 5% or less (practically no effect)); D (crabgrass) weedkilling efficacy grade (crabgrass [29]): 5 (weed kill ratio 90% or more, (practically complete withering)); E (green foxtail) weedkilling efficacy grade (green foxtail [30]): 5 (weed kill ratio 90% or more, (practically complete withering)); N (chickweed) weedkilling efficacy grade (chickweed [31]): 2 (weed kill ratio 20% or more, less than 40%); B (bulrush) weedkilling efficacy grade (bulrush [33]): 5 (weed kill ratio 90% or more, (practically complete withering)); c (corn) effect on crop grade (corn [36]): 4 (weed kill ratio 70% or more, less than 90%); H (black-grass) weedkilling efficacy grade (black-grass [37]): 5 (weed kill ratio 90% or more, (practically complete withering))"
